The record followed here is patent US20180332850A1, “METHOD FOR IMPROVING EARLINESS IN COTTON” (Robert Bosch GmbH, priority 2015, published 2018).

The subject of this assay is Cotton (Gossypium hirsutum) of the variety DP 1050 B2BRF. Nature of the assay: Field trial: percentage of open bolls in cotton after in-furrow application (earliness). It counts as in vivo. As to conditions: application rate 841 g/ha, in furrow by spreading, visual inspection. From the text:
Cotton (Gossypium hirsutum) of the variety DP 1050 B2BRF was planted in a field trial in Brooks, Ga., United States in May 2013. Temik (comprising the active ingredient Aldicarb ([2-methyl-2-(methylthio) propionaldehyde O-(methylcarbamoyl)oxime]) and Fluopyram in combination with Imidacloprid (Velum® Total, Bayer CropScience) were applied in furrow at the same day. Temik was used for controlling insects in cotton and was provided as a Granule Release formulation with 15% (w/w) active ingredient and was applied at a rate of 841 g of active ingredient/ha by spreading. Fluopyram in combination with Imidacloprid (Velum® Total) was used as a Soluble Concentrate (SC) formulation with a concentration of 440 g/l active ingredient in total, thereof 180 g/l Fluopyram and 260 g/l Imidacloprid and these combinations were applied separately at three different rates of 321.5 g of total active ingredient/ha, 450 g of total active ingredient/ha, and 578.7 g of total active ingredient/ha by spraying. The percentage of open bolls was assessed by visual inspection at three times after application.

Consider `CNC(=O)ON=CC(C)(C)SC` [Aldicarb, 2-methyl-2-(methylthio) propionaldehyde O-(methylcarbamoyl)oxime], for which, where the note is “97 days after application, BBCH 76”, the “percentage of open bolls, 97 Days after Application BBCH 76” value stood at 12.5%. Also, the “percentage of open bolls, 104 Days after Application BBCH 77” value (104 days after application, BBCH 77) came out at 17.5%. Moreover, under “111 days after application, BBCH 78”, the “percentage of open bolls, 111 Days after Application BBCH 78” value was 30.0%.
